This is an account of results in ChEMBL document CHEMBL5030557, “Tandem Repeat of a Short Human Chemerin-Derived Peptide and Its Nontoxic d-Lysine-Containing Enantiomer Display Broad-Spectrum Antimicrobial and Antitubercular Activities” (J Med Chem, 2021).

Data set [1] deals with Pseudomonas aeruginosa. Put plainly: Antibacterial activity against Pseudomonas aeruginosa BAA 427 assessed as resistance development by measuring fold change in MIC after 30 passages with serially diluted peptides. In kind it is functional.
The subject of data set [2] is Escherichia coli. Put plainly: Antimicrobial activity against Escherichia coli ATCC 25922 assessed as inhibition of bacterial growth by broth dilution method. The format is functional.
A further data set deals with Bacillus subtilis. Briefly: Antimicrobial activity against Bacillus subtilis ATCC 6633 assessed as inhibition of bacterial growth by broth dilution method. The format is functional.
The next data set has as its system Klebsiella pneumoniae. Briefly: Antimicrobial activity against Klebsiella pneumoniae ATCC 27736 assessed as inhibition of bacterial growth by broth dilution method. In kind it is functional.
Data set [3] concerns Pseudomonas aeruginosa. Put plainly: Antimicrobial activity against Pseudomonas aeruginosa ATCC BAA-427 assessed as inhibition of bacterial growth by broth dilution method. The format is functional. For orientation: Dilution methods test growth across graded concentrations, often in twofold steps.
The nature of data set [4]: Retention time of the compound analysed by RP-HPLC analysis. In kind it is physicochemical.
Data set [5] concerns Staphylococcus aureus. Briefly: Antimicrobial activity against Staphylococcus aureus ATCC 25923 assessed as inhibition of bacterial growth by broth dilution method. In kind it is functional.
The subject of data set [6] is Staphylococcus aureus. Briefly: Antimicrobial activity against methicilin- resistant Staphylococcus aureus ATCC 33591 assessed as inhibition of bacterial growth by broth dilution method. The format is functional.
Data set [7] relates to Staphylococcus aureus. Put plainly: Antimicrobial activity against multidrug-resistant Staphylococcus aureus ATCC BAA-44 assessed as inhibition of bacterial growth by broth dilution method. The format is functional.
The nature of data set [8]: Hemolytic activity in human RBC measured after 40 mins. As to conditions: red blood cells (RBC). In kind it is ADME, tissue-based, Erythrocyte.
Data set [9] relates to Escherichia coli. Put plainly: Antibacterial activity against Escherichia coli ATCC 25922 in presence of 10 percent fresh human serum measured after 1 hr. The format is functional.
In data set [10] the test system is Escherichia coli. Put plainly: Antibacterial activity against Escherichia coli ATCC 25922 in presence of 4.5 mM KCl measured after 1 hr. In kind it is functional.
In data set [11] the test system is Escherichia coli. Put plainly: Antibacterial activity against Escherichia coli ATCC 25922 in presence of 150 mM NaCl measured after 1 hr. The format is functional.
In data set [12] the test system is Escherichia coli. Put plainly: Antibacterial activity against Escherichia coli ATCC 25922 in presence of temperature ranging from 4 to 90 degC measured after 1 hr. In kind it is functional.
Another data set relates to Cell membrane. Put plainly: Induction of membrane damage in Escherichia coli assessed as disruption of membrane integrity at 10 uM incubated for 30 min by propidium iodide staining based assay.
Data set [13] is described as follows: Disruption of membrane integrity in human RBC cells assessed as membrane damage at 150 uM incubated for 15 min by Alexa fluor-annexin V staining based assay (reference value: 0%). In kind it is functional, Red blood cell. The note with it: 0.25 h.

≈ marks a conversion by molar mass, not a printed value. Calls of active or inactive are those of the source. Where a SMILES comes first, the peptide text is derived from it.

Turning to `O=C(O)c1cn(C2CC2)c2cc(N3CCNCC3)c(F)cc2c1=O` [CIPROFLOXACIN], the “fold change (FC)” value in the data set with Pseudomonas aeruginosa [1] amounted to 64.

As for `CN(C)[C@@H]1C(O)=C(C(N)=O)C(=O)[C@@]2(O)C(O)=C3C(=O)c4c(O)cccc4C(C)(O)[C@H]3C[C@@H]12` (some centres undefined), the “fold change (FC)” value in the data set with Pseudomonas aeruginosa [1] is recorded as 16.

Consider `CC(C)C[C@H](NC(=O)[C@H](CCCNC(=N)N)NC(=O)CNC(=O)[C@H](CC(C)C)NC(=O)[C@@H](NC(=O)[C@H](CCCCN)NC(=O)[C@@H](NC(=O)[C@H](CC(C)C)NC(=O)[C@H](CCCNC(=N)N)NC(=O)CNC(=O)[C@H](CC(C)C)NC(=O)[C@@H](NC(=O)[C@H](N)CCCCN)C(C)C)C(C)C)C(C)C)C(=O)N[C@H](C(N)=O)C(C)C`, for which the MIC (as a rule, the smallest concentration in the dilution series that meets the test's criterion for growth inhibition) was found to be 0.5 µM (≈ 0.775 µg/mL) in the data set on Escherichia coli [2]; 2 µM (≈ 3.1 µg/mL) in the data set on Bacillus subtilis; 4 µM (≈ 6.2 µg/mL) in the data set on Klebsiella pneumoniae; 4 µM (≈ 6.2 µg/mL) in the data set on Pseudomonas aeruginosa [3]; 2 µM (≈ 3.1 µg/mL) in the data set on Staphylococcus aureus [5]; 1 µM (≈ 1.55 µg/mL) in the data set on Staphylococcus aureus [6]. Also, the MIC was determined as 2 µM (≈ 3.1 µg/mL) in the data set with Staphylococcus aureus [7]; 1 µM in the data set with Escherichia coli [9]; 4 µM in the data set with Escherichia coli [10]; 2 µM with Escherichia coli [11]; 2 µM in the data set on Escherichia coli [12]. The compound further had a Retention_time in data set [4] of 18.8 min. In data set [8], the HC50 (in general, the concentration giving 50% haemolysis) at 40 min is 0.165 mM. Moreover, the outcome with Cell membrane was Active. The Activity in data set [13] was found to be 99.1%.

On to `CC[C@H](C)[C@H](NC(=O)CN)C(=O)NCC(=O)N[C@@H](C)C(=O)N[C@H](C(=O)N[C@@H](CC(C)C)C(=O)N[C@@H](CCCCN)C(=O)N[C@H](C(=O)N[C@@H](CC(C)C)C(=O)N[C@H](C(=O)N[C@H](C(=O)NCC(=O)N[C@@H](CC(C)C)C(=O)N1CCC[C@H]1C(=O)N[C@@H](C)C(=O)N[C@@H](CC(C)C)C(=O)N[C@H](C(=O)N[C@@H](CO)C(=O)N[C@@H](Cc1c[nH]c2ccccc12)C(=O)N[C@H](C(=O)N[C@@H](CCCCN)C(=O)N[C@@H](CCCNC(=N)N)C(=O)N[C@@H](CCCCN)C(=O)N[C@@H](CCCNC(=N)N)C(=O)N[C@@H](CCC(N)=O)C(=O)N[C@@H](CCC(N)=O)C(N)=O)[C@@H](C)CC)[C@@H](C)CC)[C@@H](C)O)[C@@H](C)O)C(C)C)C(C)C` [MELITTIN], for which the Activity in [13] is listed as 99.6%.

For the compound GENTAMICIN, the MIC was found to be 1.35 µM in the data set on Pseudomonas aeruginosa [3], 0.67 µM in the data set on Staphylococcus aureus [5] and 1.35 µM in the data set with Staphylococcus aureus [7]. In addition, the fold change (FC) in the data set with Pseudomonas aeruginosa [1] was 16.

In the case of `CCn1cc(C(=O)O)c(=O)c2cc(F)c(N3CCNCC3)cc21` [NORFLOXACIN], the minimal inhibitory concentration (MIC) in the data set with Klebsiella pneumoniae is 0.15 µM (≈ 0.0479 µg/mL); in the data set with Pseudomonas aeruginosa [3], 1.22 µM (≈ 0.39 µg/mL); in the data set on Staphylococcus aureus [5], 1.22 µM (≈ 0.39 µg/mL); in the data set with Staphylococcus aureus [7] it was 2.44 µM (≈ 0.779 µg/mL).

For the compound `CC(C)C[C@H](NC(=O)[C@H](CCCNC(=N)N)NC(=O)CNC(=O)[C@H](CC(C)C)NC(=O)[C@@H](NC(=O)[C@@H](N)CCCCN)C(C)C)C(=O)N[C@H](C(N)=O)C(C)C` (H-KVLGRLV-NH2), the minimum inhibitory concentration (MIC) in the data set on Escherichia coli [2], in the data set on Bacillus subtilis, with Klebsiella pneumoniae, with Pseudomonas aeruginosa [3], with Staphylococcus aureus [5] and with Staphylococcus aureus [6] was more than 100 µM each time. Moreover, the minimum inhibitory concentration (MIC) in the data set with Staphylococcus aureus [7] was more than 100 µM. The Retention_time in [4] is 8.1 min.

Turning to `CC(C)C[C@H](NC(=O)[C@H](CCCNC(=N)N)NC(=O)CNC(=O)[C@H](CC(C)C)NC(=O)[C@@H](NC(=O)[C@@H](CCCCN)NC(=O)[C@@H](NC(=O)[C@H](CC(C)C)NC(=O)[C@H](CCCNC(=N)N)NC(=O)CNC(=O)[C@H](CC(C)C)NC(=O)[C@@H](NC(=O)[C@H](N)CCCCN)C(C)C)C(C)C)C(C)C)C(=O)N[C@H](C(N)=O)C(C)C`, the MIC in the data set on Escherichia coli [2] was determined as 1 µM (≈ 1.55 µg/mL); in the data set on Bacillus subtilis, 2 µM (≈ 3.1 µg/mL); in the data set with Klebsiella pneumoniae, 4 µM (≈ 6.2 µg/mL); in the data set with Pseudomonas aeruginosa [3] it was 4 µM (≈ 6.2 µg/mL); with Staphylococcus aureus [5], 2 µM (≈ 3.1 µg/mL); in the data set on Staphylococcus aureus [6], 2 µM (≈ 3.1 µg/mL). In addition, the MIC with Staphylococcus aureus [7] worked out at 2 µM (≈ 3.1 µg/mL); in the data set with Escherichia coli [9], 2 µM; with Escherichia coli [10] it was 2 µM; with Escherichia coli [11], 1 µM; in the data set on Escherichia coli [12] it was 2 µM. For the same compound, the Retention_time in [4] was determined as 16.5 min. Moreover, the HC50 at 40 min in data set [8] was found to be 1.93 mM. For the same compound, the result in the data set on Cell membrane was Active. Besides, the Activity in [13] turned out to be 13.9%.
